Results on six molecules are retold here after PubChem BioAssay AID1259407 (Chemical Carcinogenesis Research Information System (CCRIS), 2018).

For this data set, the system named is CCRIS mutagenicity, Ames/micronucleus/aberration tests. Briefly: CCRIS mutagenicity studies.
[1] abbreviates: Test System: AMES SALMONELLA TYPHIMURIUM, Strain/Indicator: TA102, Metabolic Activation: NONE, Method: STANDARD PLATE.
Setting [2] is: Test System: AMES SALMONELLA TYPHIMURIUM, Strain/Indicator: TA98, Metabolic Activation: NONE, Method: STANDARD PLATE.
[3] abbreviates: Test System: AMES SALMONELLA TYPHIMURIUM, Strain/Indicator: TA98, Metabolic Activation: RAT, LIVER, S-9, AROCLOR 1254, Method: STANDARD PLATE.
The mark [4] stands for this setting: Test System: AMES SALMONELLA TYPHIMURIUM, Strain/Indicator: TA100, Metabolic Activation: NONE, Method: STANDARD PLATE.
[5] abbreviates: Test System: AMES SALMONELLA TYPHIMURIUM, Strain/Indicator: TA100, Metabolic Activation: RAT, LIVER, S-9, AROCLOR 1254, Method: STANDARD PLATE.
Setting [6] is: Test System: AMES SALMONELLA TYPHIMURIUM, Strain/Indicator: TA98, Metabolic Activation: S-9, Method: STANDARD PLATE.
Setting [7] is: Test System: AMES SALMONELLA TYPHIMURIUM, Strain/Indicator: TA100, Metabolic Activation: S-9, Method: STANDARD PLATE.

The source made the active and inactive calls. How the calls were made is not given here.

As for `COc1cccc(N)c1`, the mutagenic call runs as follows: (End Point: IN VITRO CHROMOSOMAL ABERRATIONS, Test System: CHINESE HAMSTER OVARY CELLS, Metabolic Activation: NONE) “active; positive”; (End Point: IN VITRO CHROMOSOMAL ABERRATIONS, Test System: CHINESE HAMSTER OVARY CELLS, Metabolic Activation: RAT, LIVER, S-9, AROCLOR 1254) “inactive; negative”; (Test System: AMES SALMONELLA TYPHIMURIUM, Strain/Indicator: TA98, Metabolic Activation: HAMSTER, LIVER, S-9, AROCLOR 1254, Method: PREINCUBATION) “inactive; negative”; (Test System: AMES SALMONELLA TYPHIMURIUM, Strain/Indicator: TA98, Metabolic Activation: NONE, Method: PREINCUBATION) “inactive; negative”; (Test System: AMES SALMONELLA TYPHIMURIUM, Strain/Indicator: TA98, Metabolic Activation: RAT, LIVER, S-9, AROCLOR 1254, Method: PREINCUBATION) “inactive; negative”; (Test System: AMES SALMONELLA TYPHIMURIUM, Strain/Indicator: TA100, Metabolic Activation: HAMSTER, LIVER, S-9, AROCLOR 1254, Method: PREINCUBATION) “inactive; negative”. Moreover, the mutagenic call (Test System: AMES SALMONELLA TYPHIMURIUM, Strain/Indicator: TA100, Metabolic Activation: NONE, Method: PREINCUBATION) was “inactive; negative”; the mutagenic call (Test System: AMES SALMONELLA TYPHIMURIUM, Strain/Indicator: TA100, Metabolic Activation: RAT, LIVER, S-9, AROCLOR 1254, Method: PREINCUBATION) is “inactive; negative”; the mutagenic call under setting [1] was “inactive; negative”; the mutagenic call (Test System: AMES SALMONELLA TYPHIMURIUM, Strain/Indicator: TA1535, Metabolic Activation: HAMSTER, LIVER, S-9, AROCLOR 1254, Method: PREINCUBATION) was “inactive; negative”; the mutagenic call (Test System: AMES SALMONELLA TYPHIMURIUM, Strain/Indicator: TA1535, Metabolic Activation: NONE, Method: PREINCUBATION) is “inactive; negative”; the mutagenic call (Test System: AMES SALMONELLA TYPHIMURIUM, Strain/Indicator: TA1535, Metabolic Activation: RAT, LIVER, S-9, AROCLOR 1254, Method: PREINCUBATION) is “inactive; negative”. Besides, the mutagenic call runs as follows: (Test System: AMES SALMONELLA TYPHIMURIUM, Strain/Indicator: TA1537, Metabolic Activation: HAMSTER, LIVER, S-9, AROCLOR 1254, Method: PREINCUBATION) “inactive; negative”; (Test System: AMES SALMONELLA TYPHIMURIUM, Strain/Indicator: TA1537, Metabolic Activation: NONE, Method: PREINCUBATION) “inactive; negative”; (Test System: AMES SALMONELLA TYPHIMURIUM, Strain/Indicator: TA1537, Metabolic Activation: RAT, LIVER, S-9, AROCLOR 1254, Method: PREINCUBATION) “inactive; negative”; (Test System: AMES SALMONELLA TYPHIMURIUM, Strain/Indicator: TA2638, Metabolic Activation: NONE, Method: STANDARD PLATE) “inactive; negative”; (Test System: E. COLI, Strain/Indicator: WP2 (PKM101), Metabolic Activation: NONE, Method: STANDARD PLATE) “inactive; negative”; (Test System: E. COLI, Strain/Indicator: WP2 UVRA (PKM101), Metabolic Activation: NONE, Method: STANDARD PLATE) “inactive; negative”.
For `Clc1ccncc1`, the mutagenic call by setting is: (Test System: AMES SALMONELLA TYPHIMURIUM, Strain/Indicator: TA97, Metabolic Activation: NONE, Method: STANDARD PLATE) “inactive; negative”; (Test System: AMES SALMONELLA TYPHIMURIUM, Strain/Indicator: TA97, Metabolic Activation: RAT, LIVER, S-9, AROCLOR 1254, Method: STANDARD PLATE) “inactive; negative”; under setting [2], “inactive; negative”; under setting [3], “inactive; negative”; under setting [4], “inactive; negative”; under setting [5], “inactive; negative”. The mutagenic call by setting is: under setting [1], “inactive; negative”; (Test System: AMES SALMONELLA TYPHIMURIUM, Strain/Indicator: TA102, Metabolic Activation: RAT, LIVER, S-9, AROCLOR 1254, Method: STANDARD PLATE) “inactive; negative”.
For `CC(=O)Nc1cc2c(cc1OC(C)=O)-c1ccccc1C2`, the mutagenic call under setting [3] was “inactive; negative”.
In the case of `CCOC1=CC(=O)C(NC(C)=O)=CC1=O`, the mutagenic call is “active; positive” under setting [2] and “active; positive” under setting [4].
In the case of `Nc1ccc(-c2ccc(N)c([N+](=O)[O-])c2)cc1`, the mutagenic call is “active; positive” (Test System: AMES SALMONELLA TYPHIMURIUM, Strain/Indicator: TA98(1,8-DNP6), Metabolic Activation: NONE, Method: STANDARD PLATE); “active; positive” (Test System: AMES SALMONELLA TYPHIMURIUM, Strain/Indicator: TA98(1,8-DNP6), Metabolic Activation: S-9, Method: STANDARD PLATE); “active; positive” under setting [2]; “active; positive” under setting [6]; “inactive; negative” under setting [4]; “active; positive” under setting [7].
As for `CC(=O)Nc1ccc(Oc2c(Cl)cc(Cl)cc2Cl)cc1`, the mutagenic call is “inactive; negative” under setting [3]; “inactive; negative” under setting [6]; “inactive; negative” under setting [4]; “active; positive” under setting [5]; “active; positive” (Test System: AMES SALMONELLA TYPHIMURIUM, Strain/Indicator: TA100, Metabolic Activation: RAT, LIVER, S-9, KANECLOR 500, Method: STANDARD PLATE); “active; positive” under setting [7]. For the same molecule, the mutagenic call by setting is: (Test System: AMES SALMONELLA TYPHIMURIUM, Strain/Indicator: YG1021, Metabolic Activation: RAT, LIVER, S-9, AROCLOR 1254, Method: STANDARD PLATE) “inactive; negative”; (Test System: AMES SALMONELLA TYPHIMURIUM, Strain/Indicator: YG1021, Metabolic Activation: S-9, Method: STANDARD PLATE) “inactive; negative”; (Test System: AMES SALMONELLA TYPHIMURIUM, Strain/Indicator: YG1024, Metabolic Activation: RAT, LIVER, S-9, AROCLOR 1254, Method: STANDARD PLATE) “active; positive”; (Test System: AMES SALMONELLA TYPHIMURIUM, Strain/Indicator: YG1024, Metabolic Activation: S-9, Method: STANDARD PLATE) “active; positive”; (Test System: AMES SALMONELLA TYPHIMURIUM, Strain/Indicator: YG1026, Metabolic Activation: RAT, LIVER, S-9, AROCLOR 1254, Method: STANDARD PLATE) “active; positive”; (Test System: AMES SALMONELLA TYPHIMURIUM, Strain/Indicator: YG1026, Metabolic Activation: S-9, Method: STANDARD PLATE) “active; positive”. The mutagenic call runs as follows: (Test System: AMES SALMONELLA TYPHIMURIUM, Strain/Indicator: YG1029, Metabolic Activation: RAT, LIVER, S-9, AROCLOR 1254, Method: STANDARD PLATE) “active; positive”; (Test System: AMES SALMONELLA TYPHIMURIUM, Strain/Indicator: YG1029, Metabolic Activation: S-9, Method: STANDARD PLATE) “active; positive”.
